Consider eight compounds from patent publication US9364554B2, “Extracellular targeted drug conjugates” (priority 2009, dated 2016).

Read-outs that look alike come from different tables or passages of the source.

One series has as its system A549 cells. Briefly: In vitro cell proliferation assay, Example 4 (CellTiter-Glo, 2 days). The format is cell-based, human. The procedure:
In vitro cell proliferation assays. […] All cell lines were maintained in complete media [RPMI medium 1640 supplemented with 10% (wt/vol) fetal bovine serum and Gentamycin ([…])]. Cells were plated at a density of 5,000 cells per well of each 96-well black tissue culture treated microtiter plate in 95 ul complete media, then were grown for 24 hour at 37° C. with 7% CO2 in a humidified incubator before agent/conjugate addition. In a separate 96-well plate, agent (in DMSO) and antibody conjugate (in PBS) stocks were serially diluted in complete media at 20× final working concentrations, and 5 ul added to the cells used in the assay. Doxorubicin was used as the control to monitor the behavior of the cell lines used. Cells were incubated with the agent/conjugate for 2 days before luminescence reading. Cell viability testing used the CellTiter-Glo luminescent cell viability assay (Promega, Madison, Wis.).
A general note: Cellular ATP, detected with luciferase, serves as a proxy for viable cell number.

The test system of the next series is A549. Kind of series: In vitro cell proliferation assay (CellTiter-Glo, 3 days) A549. The format is cell-based, human. To be noted: for IC50: Homo sapiens; for activity decrease when attached to the PEG24 linker and capped, compared to the free uncoupled agent: Example 15. The protocol: (§1) In vitro cell proliferation assays. […] All cell lines were maintained in complete media [RPMI medium 1640 supplemented with 10% (wt/vol) fetal bovine serum and Gentamycin (50 μg/ml)]. Cells were plated at a density of 1250 (H460 and A549) or 1825 (HCT15 and MCF7) cells per well of each 384-well white tissue culture treated microtiter plate in 20 uls complete media, and then were grown for 24 hour at 37° C. with 7% CO2 in a humidified incubator before agent/conjugate addition. In a separate 96-well plate, agent and antibody conjugate (in PBS) stocks were serially diluted in complete media at 5× final working concentrations, and 5 ul added to the cells used in the assay. Cells were incubated with the agent/conjugate for 3 days before cell viability testing. Cell viability testing used the CellTiter-Glo luminescent cell viability assay (Promega, Madison, Wis.). IC50 values of the agents to each cell line were determined using GraphPad Prism 5 software.
For the experiment below, α-Fl-CEN10-105 (also termed α-Fl-106), CEN10-105-Cys (also termed PEG24106) and M53-PEG24-CEN09-106 were varied as indicated in FIG. 11. […] All were assayed in the A549 cell proliferation assay. Cells were maintained in complete media [RPMI medium 1640 supplemented with 10% (wt/vol) fetal bovine serum and Gentamycin (50 μg/ml)]. Cells were plated at a density of 1250 per well of a 384-well white tissue culture treated microtiter plate in 20 uls complete media, then were grown for 24 hour at 37° C. with 7% CO2 in a humidified incubator before agent/conjugate addition. In a separate 96-well plate, agent and antibody conjugate (in PBS) stocks were serially diluted in complete media at 5× final working concentrations, and 5 uls added to the cells used in the assay. For the competition assay (M53 Comp) M53 was serially diluted from 500 to 0.11 nM in the presence of 5 nM PEG24-106, and 5 ul of these dilutions were added to cells used in this assay. Cells were incubated with the agent/conjugate for 3 days before cell viability testing. Cell viability testing used the CellTiterGlo luminescent cell viability assay (Promega, Madison, Wis.).
Cytotoxicity of the above EDCs were evaluated in vitro on the NSCLC line A549. Cells were maintained in complete media [RPMI medium 1640 supplemented with 10% (wt/vol) fetal bovine serum and Gentamycin (50 μg/ml)]. Cells were plated at a density of 1250 per well of a 384-well white tissue culture treated microtiter plate in 20 uls complete media, then were grown for 24 hour at 37° C. with 7% CO2 in a humidified incubator before conjugate addition. In a separate 96-well plate, ADC (in PBS) stocks were serially diluted in complete media at 5× final working concentrations, and 5 uls added to the cells used in the assay. Cells were incubated in the presence of the compounds for 72 hrs prior to cell viability testing. Cell viability testing was performed using the CellTiter-Glo luminescent cell viability assay (Promega, Madison, Wis.).
Cytotoxicity of the above compounds were evaluated in vitro on the NSCLC line A549. Cells were maintained in complete media [RPMI medium 1640 supplemented with 10% (wt/vol) fetal bovine serum and Gentamycin (50 μg/ml)]. Cells were plated at a density of 1250 per well of a 384-well white tissue culture treated microtiter plate in 20 uls complete media, then were grown for 24 hour at 37° C. with 7% CO2 in a humidified incubator before agent addition.

The test system of another series is H460. Kind of series: In vitro cell proliferation assay (CellTiter-Glo, 3 days) H460. The class given is cell-based. As to conditions: Homo sapiens. The protocol: as §1
A further series deals with MCF10a. Briefly: Cytotoxicity IC50 on MCF10a. To be noted: Homo sapiens, MCF-10A; Example 9. The class given is cell-based. An excerpt:
(§2) ND indicates IC50 values that could not be determined at the concentrations tested. The presence of the antibody M53's target on the cell surface as determined by M53 cell staining is indicated as Yes/No. The origin of the cell line and disease type for each cell line is also indicated.

A further series has as its system A431. Kind of series: Cytotoxicity IC50 on A431. The class given is cell-based. As to conditions: Homo sapiens, A-431; Example 9.
Excerpt: as §2

In the next series the test system is SKOV3. Briefly: Cytotoxicity IC50 on SKOV3. The class given is cell-based. As to conditions: Homo sapiens, SK-OV-3; Example 9.
Excerpt: as §2

For the next series, the system named is MB-231. Kind of series: Cytotoxicity IC50 on MB-231. The class given is cell-based. To be noted: Homo sapiens; Example 9.
Excerpt: as §2

For another series, the system named is HCT15. Kind of series: In vitro cell proliferation assay (CellTiter-Glo, 3 days) HCT15. The class given is cell-based. To be noted: Homo sapiens. The protocol:
as §1

The test system of the next series is MALME-3M. Briefly: Cytotoxicity IC50 on MALME-3M. The class given is cell-based. To be noted: Homo sapiens, Example 9.
Excerpt: as §2

Another series deals with HT29. Kind of series: Cytotoxicity IC50 on HT29. To be noted: Homo sapiens, HT-29; Example 9. The format is cell-based.
Excerpt: as §2

A further series concerns MEL2. Kind of series: Cytotoxicity IC50 on MEL2. The format is cell-based. To be noted: Homo sapiens, Example 9.
Excerpt: as §2

Another series has as its system A375. Kind of series: Cytotoxicity IC50 on A375. The class given is cell-based. To be noted: Homo sapiens.
Excerpt: as §2
Parent CEN09-106, CEN09-104 and CEN10-126 drugs were all linked to antibody M53 via the PEG24 linker as described in Example 5. The intermediate drug-PEG24's were capped with cysteine as described in Example 5. Cytotoxicity of the EDC's and the drug-PEG24 linkers were evaluated in vitro on the NSCLC line A549 and malignant melanoma cell line A375 as described in Example 5.

For another series, the system named is MCF7. Briefly: In vitro cell proliferation assay (CellTiter-Glo, 3 days) MCF7. The format is cell-based. As to conditions: Homo sapiens. The procedure:
as §1

Setting [1] is: A549, read-out: IC50 A549, Example 15.

For the compound “scillarenin neo-4-amino-4-deoxy-L-xylopyranoside [CEN08-243]”, the “A549 cell cytotoxicity (in words)” value with A549 cells (within the testing concentration range, antibodies alone = reduced antibody with linker, no agent) is on record as “display cytotoxic activity”.
In the case of “scillarenin-4-amino-4-deoxy-L-ribopyranoside [CEN09-107]”, in the series on A549 cells (A549, FIGS. 3-6), the “activity of conjugate compared with free agent (in words)” value is on record as “more active when not conjugated to L15”.
For the compound `CC1=C2C[C@H]3[C@@H](CC=C4C[C@@H](O)CC[C@@]43C)[C@@H]2CC[C@]12O[C@@H]1C[C@H](C)CN[C@H]1[C@H]2C` [cyclopamine, Cyclopamine, reference compound], the IC50 (as a rule, the concentration that inhibits the measured activity by half) with A549 (A549, read-out: IC50 A549) was determined as 392 µM.
For the compound `N[C@@H](C=O)[C@@H](O)[C@H](O)[C@H](O)CO` [GlcNH2, 2-amino-2-deoxy-D-Glucose, reference compound], the IC50 was over 1000 µM in the series on A549 (A549, read-out: IC50 A549, Example 11, 457 nM to 1 mM) and over 1000 µM in the series with H460 (NCI-H460, read-out: IC50 H460).
Take `CC1=C2C[C@H]3[C@@H](CC=C4C[C@@H](O)CC[C@@]43C)[C@@H]2CC[C@]12O[C@@H]1C[C@H](C)CN(CCCCCCNC(=O)CCOCCOCCOCCOCCOCCOCCOCCOCCOCCOCCOCCOCCOCCOCCOCCOCCOCCOCCOCCOCCOCCOCCOCCOCCNC(=O)CCN3C(=O)C=CC3=O)C1[C@H]2C` (stereo partly drawn) [CEN10-130]: the 50% inhibitory concentration (IC50) with A549 (A549, Example 10, working concentrations 0.9 to 1000 uM, read-out: IC50 A549) amounted to 244 µM.
For the compound `C[C@]12CC[C@H](OC3OC[C@H](N)[C@@H](O)[C@@H]3O)C=C1CCC1C2CC[C@]2(C)[C@@H](c3ccc(=O)oc3)CC[C@]12O` (stereo partly drawn) [CEN09-106, Scillarenin-4-amino-4-deoxy-L-xylopyranoside], the half-maximal inhibitory concentration (IC50) in the series on MCF10a came to 6.6 nM; in the series on A549 (A549, 72 h, Example 14, cysteine-capped linker forms, A549, 72 hrs), 0.00046 µM; in the series on A549 (A549, 72 h, read-out: IC50 A549, 3 days, CellTiter-Glo), 0.00056 µM; in the series on A549 (A549, read-out: IC50 A549, Example 9), 0.0007 µM; with A549 (setting [1]), 0.0005 µM; in the series with A431, 2 nM. Moreover, the concentration for half-maximal inhibition (IC50) in the series on SKOV3 stood at 5.3 nM; in the series on MB-231, 7 nM; with HCT15 (HCT-15, 72 h, read-out: IC50 HCT15), 2.35 nM; in the series with HCT15 (HCT-15, read-out: IC50 HCT15), 2.3 nM; with MALME-3M, 5.4 nM; in the series on HT29, 3.1 nM. In addition, the IC50 turned out to be 4.3 nM with MEL2; 0.00131 µM in the series with H460 (NCI-H460, 72 h, read-out: IC50 H460); 0.0016 µM in the series on H460 (NCI-H460, read-out: IC50 H460); 3.2 nM with A375 (A-375, Example 9); 1.4 nM in the series on A375 (A-375, Example 15); 1.88 nM with MCF7 (MCF7, 72 h, read-out: IC50 MCF7). The concentration for half-maximal inhibition (IC50) in the series on MCF7 (MCF7, read-out: IC50 MCF7) was 2.6 nM.
For the compound `C[C@]12CCC(=NNC(=O)CN)C=C1CCC1C2CC[C@]2(C)[C@@H](c3ccc(=O)oc3)CC[C@]12O` (stereo partly drawn) [CEN09-104, glycinyl hydrazine of scillarenone], the “activity decrease when attached to the PEG24 linker and capped, compared to the free uncoupled agent” value in the series with A549 is given as about 5 fold. The 50% inhibitory concentration (IC50) in the series on A549 (setting [1]) amounted to 0.092 µM; in the series with A375 (A-375, Example 15), 230 nM.
With `C[C@]12CC[C@H](O[C@@H]3OC(CO)[C@@H](O)[C@H](O)C3N)C=C1CCC1C2CC[C@]2(C)[C@@H](c3ccc(=O)oc3)CC[C@]12O` (stereo partly drawn) [CEN10-126, scillarenin-2-deoxy-2-amino-β-D-glucopyranoside], in the series with A549, the “activity decrease when attached to the PEG24 linker and capped, compared to the free uncoupled agent” value is about 300 fold. Also, the concentration for half-maximal inhibition (IC50) with A549 (setting [1]) came out at 0.0013 µM.
